Measurements from US6699834B1, “Method for treating cancer” (University of Maryland Biotechnology Institute, priority 1997, dated 2004).
Bridge positions count the residues as written; N and C are the ends. Ends that are not written are not given here.

How the values were obtained:
lung cancer cells [1] = test: Apoptosis by confocal microscopy, lung cancer cells; format: cell-based; conditions: 48 hours
Procedure: (§1) The preparations fractions and peptides were also assayed using a clonogenic assay in which cells were seeded in methylcellulose in the presence or absence of test substance and then colonies were counted after a certain period of time. Cells were also examined for apoptosis by confocal microscopy. FIGS. 23A-F show confocal micrograms of lung cancer cells treated with the hCG or hCG related preparation and then stained with FITC labelled actin monoclonal antibody to visualize the cytoskeleton and propidium iodine to visualize the cells nucleus. Condensation of the nucleus and damage to the cytoskeleton are indications of apoptosis.

lung cancer cells [2] = test: Trypan blue cell death assay, lung cancer cells; format: cell-based
Procedure: (§2) The hCG preparations, fractions of the early pregnancy urine and hCG APL™ SUPERDEX™ 200 fractionations (described herein), and certain β-hCG peptides were tested on prostate, lung, breast, and kidney cancer cells in vitro, and on prostate tumors in nude mice. […] The preparations fractions and peptides were also assayed using a clonogenic assay in which cells were seeded in methylcellulose in the presence or absence of test substance and then colonies were counted after a certain period of time. Cells were also examined for apoptosis by confocal microscopy.
The effects of hCG preparations, hCG fractions and β-hCG peptides were tested in lung cancer cells in vitro. Lung cancer cells were incubated with the hCG preparations, hCG fractions and β-hCG peptides in both the trypan blue viability assay and the clonogenic assay.

prostate cancer cells [3] = test: Apoptosis by confocal microscopy, prostate cancer cells; format: cell-based; conditions: 48 hours
Procedure: as §1, with “FIGS. 18A-H” for “FIGS. 23A-F”, “confocal micrographs” for “confocal micrograms”, “of prostate” for “of lung”, “with an” for “with the”, “with FITC-labelled” for “with FITC labelled”, “the cell” for “the cells”

[4] = tested on: Kaposi's Sarcoma induced in mice; test: Kaposi's Sarcoma tumors induced in mice by KS Y-1 cells; format: in vivo
Procedure: The effects of the peptides on KS tumor cells were also evaluated in vivo in the KS mouse model. To induce KS tumors in the mice, 1×10^6/ml KS Y-1 cells in 50 μl PBS or saline were injected subcutaneously into immunodeficient mice (beige-XID-BNX mice). […] Methods for detection of apoptosis (from tissue biopsies) were used, as described in Lunardi-Iskandar et al.(1995, Nature 375:64-68). Briefly, the samples were stained in situ for the presence of cells with DNA fragmentation. Tissue slides from formalin-fixed tumors were treated with terminal deoxynucleotide transferase for extension of DNA ends (hydroxyl 3′) and incorporation of digoxigenin-11-dUTP according to the manufacturer's instructions (Oncor, Gaithersburg, Md.). Anti-digoxigenin antibody conjugated with the enzyme peroxidase allowed detection of apoptotic cells, which stain brown, whereas viable cells stain blue.
Certain fractions were tested for activity in reducing Kaposi's Sarcoma lesions in the Kaposi's Sarcoma mouse model as described herein. In this assay, starting one week after injection of the KS Y-1 cells to induce Kaposi's sarcoma formation, the mice were injected subcutaneously with 100 IU hCG. […] After one week of the week of treatment with the hCG fractions, the KS lesions were examined for cell apoptosis and regression as described herein.
Certain fractions of the APL™ hCG and early pregnancy urine were assayed for their ability to elicit apoptosis in Kaposi's Sarcoma lesions induced by injection of KS Y-1 cells in mice (n=3 mice for each treatment). The mice were administered 100 μl subcutaneously of the particular fraction each day for one week.

prostate cancer cells [5] = test: Prostate cancers induced in nude mice; format: in vivo; conditions: peptide 200 μg per day, hCG APL 100 IU per day, systemic
lung cancer cells [6] = test: Clonogenic assay, lung cancer cells; format: cell-based; conditions: compared to PBS alone
Procedure: as §2

prostate cancer cells [7] = test: Trypan blue cell death assay, prostate cancer cells; format: cell-based
Procedure: as §2
The effects of hCG preparations, hCG fractions and β-hCG peptides were tested in prostate cancer cells both in vitro and in vivo. Cells were incubated in either 10% fetal bovine serum (FBS) or 3% fetal bovine serum plus hCG preparations, hCG fractions and β-hCG peptides.

breast cancer cells = test: Trypan blue cell death assay, breast cancer cells; format: cell-based; conditions: 100 ug/ml
Procedure: as §2
The effects of hCG preparations, hCG fractions and β-hCG peptides were also tested in breast cancer cells in vitro. Breast cancer cells were incubated with the hCG preparations, hCG fractions and β-hCG peptides in both the trypan blue viability assay and the clonogenic assay.

4. Circ 44-57: β-hCG 44-57 with cysteine substituted at position 44, circularized via disulfide bond (SEQ ID NO:26) (CLQGVLPALPQVVC; disulfide 1-14 (inferred))
apoptosis (lung cancer cells [1]): increased apoptosis | % dead cells (lung cancer cells [2]; 200 μg/ml): 42% | % dead cells (lung cancer cells [2]; 300 μg/ml): 59% | apoptosis (prostate cancer cells [3]): increased apoptosis | KS in vivo ([4]; inhibition of Kaposi's Sarcoma induced in mice): +++ (“+++” represents greater than 70% effect) | effect on KS tumors in mice (in words) ([4]; mouse, in vivo): extensive cell death | apoptosis of prostate cancer cells in vivo (prostate cancer cells [5]): caused apoptosis of the prostate cancer cells in vivo | colony formation (lung cancer cells [6]): inhibited colony formation | inhibition of HIV-1 infection/replication in vitro (in words) (HIV-1): inhibit HIV-1 replication in vitro | HIV in vitro Inhibition (HIV-1; inhibition of HIV-1 replication in vitro (HIV-1 strains and HIV-1 primary isolates)): +++ (“+++” represents greater than 70% effect) | percentage of cell death (trypan blue) (prostate cancer cells [7]; 3% FBS, 200 μg/ml): 39% | percentage of cell death (trypan blue) (prostate cancer cells [7]; 3% FBS, 300 μg/ml): 50% | percentage of cell death (trypan blue) (prostate cancer cells [7]; 10% FBS, 200 μg/ml): 29% | percentage of cell death (trypan blue) (prostate cancer cells [7]; 10% FBS, 300 μg/ml): 38% | % dead cells (breast cancer cells): 42%
